In paper PMC6402343 (ACS chemical biology, 2019):

How the values were obtained:
RhlR [1] = target: T1, RhlR (Pseudomonas aeruginosa, UniProt P54292); experiment: P. aeruginosa PAO-JP2 RhlR reporter; type: cell-based; settings: for EC50 / Max. RhlR Activation: P. aeruginosa RhlR reporter strain; for EC50: dose-response; for Max. RhlR Activation: efficacy
RhlR [2] = target: T1, RhlR; experiment: E. coli RhlR reporter; type: cell-based; settings: E. coli RhlR reporter strain; for EC50: dose-response; for Max. RhlR Activation: efficacy

T1 sequence (P54292 whole entry): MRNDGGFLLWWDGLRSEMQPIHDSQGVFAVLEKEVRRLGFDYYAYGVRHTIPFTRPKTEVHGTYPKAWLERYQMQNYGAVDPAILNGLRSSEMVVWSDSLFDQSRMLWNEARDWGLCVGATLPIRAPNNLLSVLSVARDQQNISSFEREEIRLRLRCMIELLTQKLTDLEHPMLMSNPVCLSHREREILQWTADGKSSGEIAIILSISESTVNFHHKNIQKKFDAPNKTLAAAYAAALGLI

| Compound | EC50 (RhlR [1]) | Max. RhlR Activation (RhlR [1]) | fold lower potency in P. aeruginosa relative to E. coli (RhlR [1]; ratio of EC50 values in the two RhlR reporters) | EC50 (RhlR [2]) | Max. RhlR Activation (RhlR [2]) |
| --- | --- | --- | --- | --- | --- |
| CC(C)CC(=O)NC1CCSC1=O (centres unmarked) [Compound 37, isovaryl homocysteine thiolactone] | 2580 nM | 91% | ~ 5 fold | 463 nM | 93% |
| CCCC(=O)N[C@H]1CCOC1=O [BHL, N-butyryl HL] | 8080 nM | 100% | – | 8950 nM | 100% |
| CC(C)CC(=O)N[C@H]1CCOC1=O [Compound 7, isovaleryl HL] | 1420 nM | 94% | – | 1020 nM | 110% |
| O=C(NC1CCOC1=O)C1CCC1 (centres unmarked) [Compound 17, cyclobutyl HL] | 1410 nM | 96% | – | 1780 nM | 100% |
